# Data reported in patent US11957759B1, “Rapidly accelerated fibrosarcoma (RAF) degrading compounds and associated methods of use” (Arvinas Operations, Inc., priority 2022, dated 2024).
# Columns and labels:
# B-RAF G466V = biological target: T1, B-RAF G466V (Homo sapiens, UniProt P15056, G466V); experiment: Target protein degradation, assay D: T-Rex 293 cells, HA-BRAF_G466V, 384 well format; type: cell-based; settings: T-Rex 293 HA-BRAF_G466V cells, 24 hours, Examples 83-269; for DC50: Assay D; for Dmax: T-REx-293, Assay D
# T1 construct: expressed in transfected cells; host or cells: T-Rex 293 cells (Invitrogen #R71007)
# How it was run: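 T-Rex 293 cells stably expressing doxycycline-induced (1 ng/mL) HA-BRAF G466V treated 24 h at 37 °C with PROTACs, 11-point 1:3 dilution, 300 nM to 5 pM final, 0.5% DMSO. Fixed cells immunostained for HA and imaged by high-content microscopy; DC50 and Dmax (% of control) derived, toxicity from nuclei counts versus DMSO.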
# B-RAF V600E = biological target: T2, B-RAF V600E (Homo sapiens, UniProt P15056, V600E); experiment: Target protein degradation, assay C: T-Rex 293 cells, HA-BRAF_V600E, 384 well format; type: cell-based; settings: T-Rex 293 HA-BRAF_V600E cells, 24 hours, Examples 83-269; for DC50: Assay C; for Dmax: T-REx-293, Assay C
# T2 construct: expressed in transfected cells; host or cells: T-Rex 293 cells (Invitrogen #R71007)
# How it was run: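 T-Rex 293 cells stably expressing doxycycline-induced (1 ng/mL) HA-BRAF V600E were treated 24 h at 37 °C with compound (300 nM–5 pM, 11 points, 0.5% DMSO). HA immunofluorescence was quantified by high-content imaging to give DC50 and Dmax (% of control); nuclei counts versus DMSO gauged toxicity.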
# T2 sequence (P15056 whole entry V600E): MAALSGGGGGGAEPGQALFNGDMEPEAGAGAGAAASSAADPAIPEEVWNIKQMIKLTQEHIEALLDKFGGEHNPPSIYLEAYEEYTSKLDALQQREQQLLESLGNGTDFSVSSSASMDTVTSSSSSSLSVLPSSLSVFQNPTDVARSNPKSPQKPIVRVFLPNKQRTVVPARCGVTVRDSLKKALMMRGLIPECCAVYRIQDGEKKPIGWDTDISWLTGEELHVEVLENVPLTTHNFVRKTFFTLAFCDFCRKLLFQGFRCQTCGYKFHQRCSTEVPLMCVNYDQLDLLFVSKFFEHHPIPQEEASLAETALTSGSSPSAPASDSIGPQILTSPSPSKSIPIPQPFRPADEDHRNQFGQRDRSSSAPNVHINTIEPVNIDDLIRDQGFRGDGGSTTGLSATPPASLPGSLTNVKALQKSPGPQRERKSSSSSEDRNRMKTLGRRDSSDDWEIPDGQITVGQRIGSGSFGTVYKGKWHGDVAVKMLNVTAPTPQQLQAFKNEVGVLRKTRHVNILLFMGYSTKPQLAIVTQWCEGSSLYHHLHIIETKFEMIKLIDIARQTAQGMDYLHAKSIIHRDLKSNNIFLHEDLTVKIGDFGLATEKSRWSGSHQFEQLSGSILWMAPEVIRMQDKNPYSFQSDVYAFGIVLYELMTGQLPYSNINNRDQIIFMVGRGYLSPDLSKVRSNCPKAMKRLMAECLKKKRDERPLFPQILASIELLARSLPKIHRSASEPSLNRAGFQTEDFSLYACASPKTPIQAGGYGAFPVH
# T1 sequence (P15056 whole entry G466V): as the sequence (P15056 whole entry V600E) above, with G466V, E600V counted along it
SMILES,DC50 (B-RAF G466V) [nM],Dmax (B-RAF G466V) [%],DC50 (B-RAF V600E) [nM],Dmax (B-RAF V600E) [%]
"N#Cc1c(NS(=O)(=O)N2CC[C@@H](F)C2)ccc(F)c1Oc1ccc2ncn(-c3ccc(C4CCCN(CC5CCN(c6ccc7c(c6)CN([C@H]6CCC(=O)NC6=O)C7=O)CC5)C4)cc3)c(=O)c2c1 (stereo partly drawn) [Example 207, (3R)-N-(2-cyano-3-{[3-(4-{1-[(1-{2-[(3S)-2,6-dioxopiperidin-3-yl]-1-oxo-2,3-dihydro-1H-isoindol-5-yl}piperidin-4-yl)methyl]piperidin-3-yl}phenyl)-4-oxo-3,4-dihydroquinazolin-6-yl]oxy}-4-fluorophenyl)-3-fluoropyrrolidine-1-sulfonamide]",1 to 10,35 to 70,50 to 500,≥ 70
"N#Cc1c(NS(=O)(=O)N2CC[C@@H](F)C2)ccc(F)c1Oc1ccc2ncn(-c3ccc(N4CCC(CN5CC(c6ccc([C@H]7CCC(=O)NC7=O)cc6F)C5)CC4)cc3)c(=O)c2c1 [Example 183, (3R)-N-(2-cyano-3-{[3-(4-{4-[(3-{4-[(3R)-2,6-dioxopiperidin-3-yl]-2-fluorophenyl}azetidin-1-yl)methyl]piperidin-1-yl}phenyl)-4-oxo-3,4-dihydroquinazolin-6-yl]oxy}-4-fluorophenyl)-3-fluoropyrrolidine-1-sulfonamide]",> 30,,50 to 500,35 to 70
"N#Cc1c(NS(=O)(=O)N2CC[C@@H](F)C2)ccc(F)c1Oc1ccc2ncn(-c3cnc(N4CCCC4CC4CCN(c5ccc6c(c5)C(=O)N(C5CCC(=O)NC5=O)C6=O)CC4)nc3)c(=O)c2c1 (stereo partly drawn) [Example 130, (3R)-N-{2-cyano-3-[(3-{2-[2-({1-[2-(2,6-dioxopiperidin-3-yl)-1,3-dioxo-2,3-dihydro-1H-isoindol-5-yl]piperidin-4-yl}methyl)pyrrolidin-1-yl]pyrimidin-5-yl}-4-oxo-3,4-dihydroquinazolin-6-yl)oxy]-4-fluorophenyl}-3-fluoropyrrolidine-1-sulfonamide]",10 to 30,≤ 35,> 500,
"N#Cc1c(NS(=O)(=O)N2CC[C@@H](F)C2)ccc(F)c1Oc1ccc2ncn(-c3ccc(N4CCC(c5ccc6c(c5)CN(C5CCC(=O)NC5=O)C6=O)CC4)nc3)c(=O)c2c1 (stereo partly drawn) [Example 136, (3R)-N-(2-cyano-3-{[3-(6-{4-[2-(2,6-dioxopiperidin-3-yl)-1-oxo-2,3-dihydro-1H-isoindol-5-yl]piperidin-1-yl}pyridin-3-yl)-4-oxo-3,4-dihydroquinazolin-6-yl]oxy}-4-fluorophenyl)-3-fluoropyrrolidine-1-sulfonamide]",1 to 10,35 to 70,5 to 50,≤ 35
"N#Cc1c(NS(=O)(=O)N2CC[C@@H](F)C2)ccc(F)c1Oc1ccc2ncn(-c3ccc(N4CCC(CN5CC6(CC(c7ccc8c(c7)CN(C7CCC(=O)NC7=O)C8=O)C6)C5)CC4)cc3)c(=O)c2c1 (stereo partly drawn) [Example 182, (3R)-N-{2-cyano-3-[(3-(4-[4-({6-[2-(2,6-dioxopiperidin-3-yl)-1-oxo-2,3-dihydro-1H-isoindol-5-yl]-2-azaspiro[3.3]heptan-2-yl}methyl)piperidin-1-yl]phenyl}-4-oxo-3,4-dihydroquinazolin-6-yl)oxy]-4-fluorophenyl}-3-fluoropyrrolidine-1-sulfonamide]",1 to 10,35 to 70,50 to 500,≤ 35
"N#Cc1c(NS(=O)(=O)N2CC[C@@H](F)C2)ccc(F)c1Oc1ccc2ncn(-c3cnc(N4CC5(CN(CC6CCN(c7cccc8c7C(=O)N(C7CCC(=O)NC7=O)C8=O)CC6)C5)C4)nc3)c(=O)c2c1 (stereo partly drawn) [Example 154, (3R)-N-{2-cyano-3-[(3-(2-[6-({1-[2-(2,6-dioxopiperidin-3-yl)-1,3-dioxo-2,3-dihydro-1H-isoindol-4-yl]piperidin-4-yl}methyl)-2,6-diazaspiro[3.3]heptan-2-yl]pyrimidin-5-yl}-4-oxo-3,4-dihydroquinazolin-6-yl)oxy]-4-fluorophenyl}-3-fluoropyrrolidine-1-sulfonamide]",10 to 30,≤ 35,50 to 500,≤ 35
"N#Cc1c(NS(=O)(=O)N2CC[C@@H](F)C2)ccc(F)c1Oc1ccc2ncn(-c3ccc(N4CC5(CN(CC6CCN(c7cccc8c7C(=O)N(C7CCC(=O)NC7=O)C8=O)CC6)C5)C4)nc3)c(=O)c2c1 (stereo partly drawn) [Example 174, (3R)-N-{2-cyano-3-[(3-{6-[6-({1-[2-(2,6-dioxopiperidin-3-yl)-1,3-dioxo-2,3-dihydro-1H-isoindol-4-yl]piperidin-4-yl}methyl)-2,6-diazaspiro[3.3]heptan-2-yl]pyridin-3-yl}-4-oxo-3,4-dihydroquinazolin-6-yl)oxy]-4-fluorophenyl}-3-fluoropyrrolidine-1-sulfonamide]",1 to 10,≤ 35,50 to 500,35 to 70

# Next, values leading:
DC50 (B-RAF G466V) [nM],Dmax (B-RAF G466V) [%],DC50 (B-RAF V600E) [nM],Dmax (B-RAF V600E) [%],SMILES
1 to 10,35 to 70,50 to 500,35 to 70,"CN(c1ccc2c(c1)CN([C@H]1CCC(=O)NC1=O)C2=O)[C@H]1CC[C@@H](N2CCN(c3ccc(-n4cnc5ccc(Oc6c(F)ccc(NS(=O)(=O)N7CC[C@@H](F)C7)c6C#N)cc5c4=O)cc3)CC2)CC1 [Example 230, (3R)-N-(2-cyano-4-fluoro-3-{[4-oxo-3-(4-(4-[(1r,4r)-4-({2-[(3S)-2,6-dioxopiperidin-3-yl]-1-oxo-2,3-dihydro-1H-isoindol-5-yl}(methyl)amino)cyclohexyl]piperazin-1-yl}phenyl)-3,4-dihydroquinazolin-6-yl]oxy}phenyl)-3-fluoropyrrolidine-1-sulfonamide]"
1 to 10,35 to 70,50 to 500,35 to 70,"C[C@H]1CC(CN2CCC(c3ccc4c(c3)CN(C3CCC(=O)NC3=O)C4=O)CC2)CCN1c1ccc(-n2cnc3ccc(Oc4c(F)ccc(NS(=O)(=O)N5CC[C@@H](F)C5)c4C#N)cc3c2=O)cc1 (stereo partly drawn) [Example 232, (3R)-N-{2-cyano-3-[(3-{4-[(2S)-4-({4-[2-(2,6-dioxopiperidin-3-yl)-1-oxo-2,3-dihydro-1H-isoindol-5-yl]piperidin-1-yl}methyl)-2-methylpiperidin-1-yl]phenyl}-4-oxo-3,4-dihydroquinazolin-6-yl)oxy]-4-fluorophenyl}-3-fluoropyrrolidine-1-sulfonamide]"
1 to 10,≥ 70,50 to 500,≥ 70,"N#Cc1c(NS(=O)(=O)N2CC[C@@H](F)C2)ccc(F)c1Oc1ccc2ncn(-c3ccc(C4CCN(CC5CC6(CCN(c7ccc8c(c7)CN([C@H]7CCC(=O)NC7=O)C8=O)CC6)C5)C4)cc3)c(=O)c2c1 (stereo partly drawn) [Example 263, (3R)-N-(2-cyano-3-{[3-(4-{1-[(7-{2-[(3S)-2,6-dioxopiperidin-3-yl]-1-oxo-2,3-dihydro-1H-isoindol-5-yl}-7-azaspiro[3.5]nonan-2-yl)methyl]pyrrolidin-3-yl}phenyl)-4-oxo-3,4-dihydroquinazolin-6-yl]oxy}-4-fluorophenyl)-3-fluoropyrrolidine-1-sulfonamide]"
1 to 10,35 to 70,50 to 500,35 to 70,"N#Cc1c(NS(=O)(=O)N2CC[C@@H](F)C2)ccc(F)c1Oc1ccc2ncn(-c3ccc(N4CCC(CN5CCC(c6ccc7c(c6)CN([C@H]6CCC(=O)NC6=O)C7=O)CC5)C4)cc3)c(=O)c2c1 (stereo partly drawn) [Example 221, (3R)-N-(2-cyano-3-{[3-(4-{3-[(4-{2-[(3S)-2,6-dioxopiperidin-3-yl]-1-oxo-2,3-dihydro-1H-isoindol-5-yl}piperidin-1-yl)methyl]pyrrolidin-1-yl}phenyl)-4-oxo-3,4-dihydroquinazolin-6-yl]oxy}-4-fluorophenyl)-3-fluoropyrrolidine-1-sulfonamide]"
10 to 30,≤ 35,> 500,,"C[C@H]1CN(CC2CCN(c3ccc4c(c3F)CN([C@@H]3CCC(=O)NC3=O)C4=O)CC2)CCN1c1ccc(-n2cnc3ccc(Oc4c(F)ccc(NS(=O)(=O)N5CC[C@@H](F)C5)c4C#N)cc3c2=O)nc1 [Example 214, (3R)-N-{2-cyano-3-[(3-{5-[(2S)-4-[(1-{2-[(3R)-2,6-dioxopiperidin-3-yl]-4-fluoro-1-oxo-2,3-dihydro-1H-isoindol-5-yl}piperidin-4-yl)methyl]-2-methylpiperazin-1-yl]pyridin-2-yl}-4-oxo-3,4-dihydroquinazolin-6-yl)oxy]-4-fluorophenyl}-3-fluoropyrrolidine-1-sulfonamide]"
1 to 10,35 to 70,50 to 500,35 to 70,"CCN(CC1CCN(c2ccc(-n3cnc4ccc(Oc5c(F)ccc(NS(=O)(=O)N6CC[C@@H](F)C6)c5C#N)cc4c3=O)cc2)CC1)[C@H]1C[C@@H](Oc2ccc3c(c2)CN([C@H]2CCC(=O)NC2=O)C3=O)C1 [Example 264, (3R)-N-{2-cyano-3-[(3-{4-[4-({ethyl[(1r,3r)-3-({2-[(3S)-2,6-dioxopiperidin-3-yl]-1-oxo-2,3-dihydro-1H-isoindol-5-yl}oxy)cyclobutyl]amino}methyl)piperidin-1-yl]phenyl}-4-oxo-3,4 dihydroquinazolin-6-yl)oxy]-4-fluorophenyl}-3-fluoropyrrolidine-1-sulfonamide]"
